Measurements reported in patent US10532052B2, “Combination of a 6-oxo-1,6-dihydro-pyridazine derivative having anti-cancer activity with an EGFR inhibitor” (Merck Patent GmbH, priority 2014, dated 2020).

Tests used:
[1] = test system: human DFCI081 NSCLC xenograft; conditions: background; due to the activated c-Met pathway; cited from earlier work
[2] = test system: human NSCLC HCC827-GR-T790M xenograft; type: in vivo; conditions: female NCr nude mice, 100 mg/kg each agent orally daily, day 14
Experimental: Background: The human NSCLC HCC827-GR-T790M is a EGFR del 19 mutant and c-Met amplified lung xenograft model which exogenous expression of the EGFR T790M resistant mutation.
Method: Female NCr nude mice (7 weeks old) where subcutaneously injected with human HCC827-GR-T790M tumor cells and were divided into treatment groups (10 animals per group) after the tumors were established. […] Median tumor volume (TV) change in % were calculated at day 14, where the vehicle group was terminated and statistical analysis done with two way-RM ANOVA.

[3] = test system: human DFCI081 NSCLC xenograft; experiment: human DFCI081 patient derived NSCLC xenograft (PDX) model; type: in vivo; conditions: for tumor response class / median tumor volume (TV) change: female NCr nude mice; for tumor response class: 100 mg/kg each agent orally daily up to 18 days; for median tumor volume (TV) change: s.c. DFCI081 tumors, 100 mg/kg orally daily up to 18 days
Method: Method: Female NCr nude mice (7 weeks old) where subcutaneously injected with human DFCI081 tumor cells and were divided into treatment groups (10 animals per group) after the tumors were established. […] Median tumor volume (TV) change in % were calculated and statistical analysis done with two way-RM ANOVA.

Compound | resistance of the model to EGFR inhibitor [1] | tumor response class [2] | median tumor volume change ([2]; s.c. HCC827-GR-T790M tumors) [%] | tumor response class [3] | median tumor volume (TV) change [3] [%] | day at which complete tumor regression/response was observed in all mice ([3]; 100 mg/kg each agent orally daily) [days]
C#Cc1cccc(Nc2ncnc3cc(OCCOC)c(OCCOC)cc23)c1 [erlotinib] | resistant | – | – | – | – | –
C=CC(=O)Nc1cccc(Nc2nc(Nc3ccc(N4CCN(C(C)=O)CC4)cc3OC)ncc2C(F)(F)F)c1 [N-[3-[[2-[4-(4-acetylpiperazin-1-yl)-2-methoxy-anilino]-5-(trifluoromethyl)-pyrimidin-4-yl]amino]phenyl]prop-2-enamide] | – | tumors progressed | 81 | tumor progressed | 700 | –
CN1CCC(COc2cnc(-c3cccc(Cn4nc(-c5cccc(C#N)c5)ccc4=O)c3)nc2)CC1.Cl.O [3-(1-{3-[5-(1-Methyl-piperidin-4-ylmethoxy)-pyrimidin-2-yl]-benzyl}-6-oxo-1,6-dihydro-pyridazin-3-yl)-benzonitrile hydrochloride hydrate] | – | – | – | tumor regression | −100 | 15
